According to patent publication US6379900B1, “Compositions and methods of use of 8-nitroguanine” (Conceptual Mindworks, Inc., priority 2000, dated 2002):

What was measured:
[1] = test system: Calf Thymus DNA; test: Viscosity studies of DNA exposed to peroxynitrite (depurination and strand breakage); format: biochemical
Text: As the degree of DNA damage increases, the likelihood of two single stranded breaks occurring within a few bases on the opposite strands of double-stranded DNA also increases. Double-stranded DNA breaks result in a decrease in the length of the DNA molecule, detectable as a decreased viscosity of linear double-stranded DNA. This method was also used to assay for depurination and DNA strand breakage. Stock solutions of Sigma Calf Thymus DNA were made by dissolving DNA in 0.1 M Na2HPO4, pH 8, 0.1 M sodium cacodylate, pH 5, 0.1 M Tris, pH 8, and 0.1 M borate, pH 8. The final volume for all viscosity experiments was 40 ml and the DNA concentration was 420 μg/ml. […] The data was recorded as the relative viscosity and specific viscosity of the solution.

[2] = test system: supercoiled pUC19 plasmid DNA; test: Conversion of supercoiled plasmid DNA to open circles (single-stranded DNA breaks) by peroxynitrite; format: biochemical, E coli
Experimental: E coli strain JM109 containing plasmid DNA (pUC19) was grown in 2 ml of M9 media to which 24 μl of 2.5 mg/ml ampicillin was added. Following incubation for approximately 8 hours, the culture was transferred to 50 ml of M9 media containing ampicillin. The following day, 25 ml of the overnight culture was used to inoculate 500 ml of M9 media containing ampicillin. When the optical density at 600 nm of the bacterial culture reached between 0.6 and 0.8 O.D., 50 mg of chloramphenicol, dissolved in 1 ml of absolute ethanol, was added to the culture and the culture was incubated overnight. The next morning, cells were harvested by centrifugation. Plasmid DNA was isolated using a Promega Wizard MaxiPrep Kit. Cells were resuspended in resuspension solution, and lysis buffer was added. The buffer was neutralized after 20 min, the solution was centrifuged and the supernatant collected. To the supernatant was added 0.5 volumes of isopropanol, which caused the DNA to precipitate. […] After removing the fine particles the DNA was ready for use. Its concentration was measured by absorbance at 260 nm (0.2 OD units=10 μg/ml). Plasmid DNA was analyzed by electrophoresis in TAE buffer using a 1% agarose gel. […] DNA was analyzed as described above. The effect of peroxynitrite concentration on the conversion of supercoils to open circles was determined at pH 5, 6, 7, 8, and 9. […] DNA was analyzed as described above. […]

[3] = cited from earlier work

Which results are given for `O=NOO` [peroxynitrite]?
activation energy of the depurination reaction (formation of single-stranded DNA nicks) ([1]; Arrhenius analysis): 917 Joules/mole; viscosity of DNA solution with time of exposure ([1]; all pH values, 37° C., within the first two hours of exposure): Viscosity decreased; reduction in DNA supercoiling ([2]; minimum observed under the conditions of the study, constant peroxynitrite concentration): ≥ 45%; conversion of supercoiled plasmid DNA to open circles ([2]; pH 4 to 10, 30 minutes at room temperature): effective at converting supercoiled plasmid DNA to open circles at all pHs

Which pKa ([3]; acid form of peroxynitrite) does the source give for `O=NOO` [peroxynitrous acid] here?
Its pKa is 6.8.

And the half life ([3]; pH 7.4)?
The half life was 1.9 s.
